Assays:
Test in all cases: relative viability (nuclei count vs DMSO), 5 days (fraction); higher = more cells survive
AZD5582 + Navitoclax = compound: C[C@@H](C(=O)N[C@@H](C1CCCCC1)C(=O)N2CCC[C@H]2C(=O)N[C@@H]3[C@@H](CC4=CC=CC=C34)OCC#CC#CCO[C@@H]5CC6=CC=CC=C6[C@@H]5NC(=O)[C@@H]7CCCN7C(=O)[C@H](C8CCCCC8)NC(=O)[C@H](C)NC)NC [AZD5582] + CC1(C)CCC(c2ccc(Cl)cc2)=C(CN2CCN(c3ccc(C(=O)NS(=O)(=O)c4ccc(N[C@H](CCN5CCOCC5)CSc5ccccc5)c(S(=O)(=O)C(F)(F)F)c4)cc3)CC2)C1 [Navitoclax] (partner 0.5 µM)
In short: (§1)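 After 5 days of treatment, lung cancer cells in 1536-well plates were fixed and stained in a single step (final 0.05% Triton X-100, 1% formaldehyde, 1 ug/ml Hoechst) and their nuclei counted on 4× images. Treatment had been applied by pin tool the day after seeding as one drug alone or as a fixed anchor-drug dose with five library-drug doses (not always all listed) in √10 steps. Relative viability is the nuclei count of treated wells divided by that of vehicle wells, and values are medians of duplicate plates.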

AZD5582 + AZD7762 = compound: C[C@@H](C(=O)N[C@@H](C1CCCCC1)C(=O)N2CCC[C@H]2C(=O)N[C@@H]3[C@@H](CC4=CC=CC=C34)OCC#CC#CCO[C@@H]5CC6=CC=CC=C6[C@@H]5NC(=O)[C@@H]7CCCN7C(=O)[C@H](C8CCCCC8)NC(=O)[C@H](C)NC)NC [AZD5582] + NC(=O)Nc1cc(-c2cccc(F)c2)sc1C(=O)N[C@H]1CCCNC1 [AZD7762] (partner 0.2 µM); settings: first compound 0.05 µM
In short: as §1

[1] = compound: Cn1nnc2c(C(N)=O)ncn2c1=O [Temozolomide] + C[C@]1(O)C[C@@H](c2nc(-c3ccc4ccc(-c5ccccc5)nc4c3)c3c(N)nccn32)C1 [Linsitinib] (partner 1 µM)
In short: as §1

Temozolomide + AZD7762 = compound: Cn1nnc2c(C(N)=O)ncn2c1=O [Temozolomide] + NC(=O)Nc1cc(-c2cccc(F)c2)sc1C(=O)N[C@H]1CCCNC1 [AZD7762] (partner 0.2 µM)
In short: as §1

Temozolomide + Olaparib = compound: Cn1nnc2c(C(N)=O)ncn2c1=O [Temozolomide] + O=C(c1cc(Cc2n[nH]c(=O)c3ccccc23)ccc1F)N1CCN(C(=O)C2CC2)CC1 [Olaparib] (partner 8 µM)
In short: as §1

NCI-H1703
relative viability (AZD5582 + Navitoclax; first compound 0.001581 µM): 0.874
relative viability (AZD5582 + Navitoclax; first compound 0.005 µM): 0.807
relative viability (AZD5582 + Navitoclax; first compound 0.01581 µM): 1.03
relative viability (AZD5582 + Navitoclax; first compound 0.05 µM): 0.557
relative viability (AZD5582 + AZD7762): 0.126
relative viability ([1]; first compound 0.2 µM): 0.863
relative viability ([1]; first compound 0.6325 µM): 0.609
relative viability ([1]; first compound 2 µM): 1.32
relative viability ([1]; first compound 6.325 µM): 0.841
relative viability ([1]; first compound 20 µM): 0.95
relative viability (Temozolomide + AZD7762; first compound 0.2 µM): 0.137
relative viability (Temozolomide + AZD7762; first compound 0.6325 µM): 0.1
relative viability (Temozolomide + AZD7762; first compound 2 µM): 0.125
relative viability (Temozolomide + AZD7762; first compound 6.325 µM): 0.147
relative viability (Temozolomide + AZD7762; first compound 20 µM): 0.107
relative viability (Temozolomide + Olaparib; first compound 0.2 µM): 0.497
relative viability (Temozolomide + Olaparib; first compound 0.6325 µM): 0.43
relative viability (Temozolomide + Olaparib; first compound 2 µM): 0.469
relative viability (Temozolomide + Olaparib; first compound 6.325 µM): 0.405
relative viability (Temozolomide + Olaparib; first compound 20 µM): 0.448

From the supplement of paper PMC10307832
